32 compounds from patent publication US9988400B2 (Genentech, Inc., priority 2013, dated 2018) can be followed below.

Structures are written as SMILES.

This test deals with T1, HEK cells stably transfected with tetracycline inducible hNR1 and hNR2A (Homo sapiens, UniProt Q05586+Q12879).
T1 construct: expressed in transfected cells; host or cells: HEK cells, stably transfected, tetracycline/doxycycline inducible
T1 sequence (Q12879 23-1464, other chains not shown): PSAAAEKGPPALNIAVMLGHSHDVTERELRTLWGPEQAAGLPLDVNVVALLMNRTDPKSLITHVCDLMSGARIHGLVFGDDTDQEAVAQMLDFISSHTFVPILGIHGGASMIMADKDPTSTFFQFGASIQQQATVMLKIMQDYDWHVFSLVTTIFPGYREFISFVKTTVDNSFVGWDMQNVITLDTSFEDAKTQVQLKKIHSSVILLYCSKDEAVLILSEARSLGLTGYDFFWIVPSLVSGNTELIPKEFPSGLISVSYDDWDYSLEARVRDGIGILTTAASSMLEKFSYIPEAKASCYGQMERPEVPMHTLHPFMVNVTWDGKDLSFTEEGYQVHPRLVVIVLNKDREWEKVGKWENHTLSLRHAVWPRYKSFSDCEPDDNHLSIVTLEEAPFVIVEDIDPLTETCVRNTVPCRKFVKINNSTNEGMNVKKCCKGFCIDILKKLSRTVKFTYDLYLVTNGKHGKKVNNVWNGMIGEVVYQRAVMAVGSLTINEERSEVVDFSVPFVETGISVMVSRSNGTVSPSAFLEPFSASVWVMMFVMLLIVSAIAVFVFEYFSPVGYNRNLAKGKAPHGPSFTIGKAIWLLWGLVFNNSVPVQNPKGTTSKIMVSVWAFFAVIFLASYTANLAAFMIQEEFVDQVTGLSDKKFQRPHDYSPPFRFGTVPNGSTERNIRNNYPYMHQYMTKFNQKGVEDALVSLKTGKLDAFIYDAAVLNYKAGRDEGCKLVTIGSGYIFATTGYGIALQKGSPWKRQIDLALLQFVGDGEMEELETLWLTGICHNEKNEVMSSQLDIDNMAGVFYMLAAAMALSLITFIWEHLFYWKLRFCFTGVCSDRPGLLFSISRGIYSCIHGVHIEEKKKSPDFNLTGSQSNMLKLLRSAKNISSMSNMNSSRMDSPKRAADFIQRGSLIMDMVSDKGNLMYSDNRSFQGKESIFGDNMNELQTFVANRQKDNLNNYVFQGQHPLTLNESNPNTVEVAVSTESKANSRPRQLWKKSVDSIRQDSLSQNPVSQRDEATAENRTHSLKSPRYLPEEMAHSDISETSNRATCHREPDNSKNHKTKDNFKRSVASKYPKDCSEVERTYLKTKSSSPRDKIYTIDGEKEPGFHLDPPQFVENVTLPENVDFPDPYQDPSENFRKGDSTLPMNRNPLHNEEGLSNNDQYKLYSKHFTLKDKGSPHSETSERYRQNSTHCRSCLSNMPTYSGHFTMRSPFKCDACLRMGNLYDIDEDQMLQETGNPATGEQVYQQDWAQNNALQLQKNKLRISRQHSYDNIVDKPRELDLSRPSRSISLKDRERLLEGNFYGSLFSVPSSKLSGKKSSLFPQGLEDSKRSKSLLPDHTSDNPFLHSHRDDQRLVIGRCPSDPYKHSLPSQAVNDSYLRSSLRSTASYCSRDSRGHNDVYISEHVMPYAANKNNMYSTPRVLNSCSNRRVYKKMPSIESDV
Kind of test: Assay 1: Cell-Based Assay, cytosolic calcium response to positive allosteric modulators (with 30 μM glycine and 300 nM L-glutamate, EC30). To be noted: Table 3; cytosolic calcium response, with 30 μM glycine and 300 nM L-glutamate (EC30); — = no plateau was reached. The procedure, abridged:
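Cells induced 24 h with 7.5 μg mL^−1 doxycycline plus 500 μM (+)-ketamine, loaded 60 min at 37 °C with calcium dye in Mg-free HBSS (1.8 mM Ca, probenecid, 10 μM (+)-ketamine, pH 7.15). Peak RFU over 5 min after compound addition, scaled to 100 μM L-glutamate (100%) and 0 μM (0%); four-parameter Hill fit for EC50, max % if no plateau.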
`Cc1sc2nc(Cn3nc(C(F)(F)F)cc3Cl)cc(=O)n2c1C1CC1` [compound 116, 7-[[5-chloro-3-(trifluoromethyl)pyrazol-1-yl]methyl]-3-cyclopropyl-2-methyl-thiazolo[3,2-a]pyrimidin-5-one]: the EC50 is 351 nM.

For `Cc1sc2nc(Cn3nc(Cl)cc3C(F)(F)F)cc(=O)n2c1C1CC1` [compound 117, 7-[[3-chloro-5-(trifluoromethyl)pyrazol-1-yl]methyl]-3-cyclopropyl-2-methyl-thiazolo[3,2-a]pyrimidin-5-one], the EC50 came out at 1030 nM.

As to `Cc1sc2nc(Cn3nc(C(F)(F)F)cc3Cl)cc(=O)n2c1C1CC1C` (centres unmarked) [compound 118, 7-[[5-chloro-3-(trifluoromethyl)pyrazol-1-yl]methyl]-2-methyl-3-(2-methylcyclopropyl)thiazolo[3,2-a]pyrimidin-5-one], the EC50 stood at 169 nM.

Take `CC(=O)c1c(C)sc2nc(Cn3nc(C(F)(F)F)cc3Cl)cc(=O)n12` [compound 119, 3-acetyl-7-[[5-chloro-3-(trifluoromethyl)pyrazol-1-yl]methyl]-2-methyl-thiazolo[3,2-a]pyrimidin-5-one]: the EC50 was 325 nM.

Consider `CC(=O)c1c(C)sc2nc(Cn3nc(Cl)cc3C(F)(F)F)cc(=O)n12` [compound 120, 3-acetyl-7-[[3-chloro-5-(trifluoromethyl)pyrazol-1-yl]methyl]-2-methyl-thiazolo[3,2-a]pyrimidin-5-one], for which the EC50 came out at 995 nM.

Consider `CC1CC1c1c(Cl)sc2nc(Cc3cccc(C(F)(F)F)c3F)cc(=O)n12` (centres unmarked) [compound 121, 2-chloro-7-[[2-fluoro-3-(trifluoromethyl)phenyl]methyl]-3-(2-methylcyclopropyl)thiazolo[3,2-a]pyrimidin-5-one], for which the EC50 was found to be 17600 nM.

For `Cc1sc2nc(Cn3nc(Cl)cc3C(F)(F)F)cc(=O)n2c1-c1cncnc1` [compound 122, 7-[[3-chloro-5-(trifluoromethyl)pyrazol-1-yl]methyl]-2-methyl-3-pyrimidin-5-yl-thiazolo[3,2-a]pyrimidin-5-one], the EC50 worked out at 9140 nM.

Turning to `CCNC(=O)c1c(C)sc2nc(Cn3nc(C4CC4)cc3C(F)(F)F)cc(=O)n12` [compound 123, 7-[[3-cyclopropyl-5-(trifluoromethyl)pyrazol-1-yl]methyl]-N-ethyl-2-methyl-5-oxo-thiazolo[3,2-a]pyrimidine-3-carboxamide], the EC50 turned out to be 2590 nM.

Consider `CCNC(=O)c1c(C)sc2nc(CN(C)c3ccc(Cl)cn3)cc(=O)n12` [compound 124, 7-[[(5-chloro-2-pyridyl)-methyl-amino]methyl]-N-ethyl-2-methyl-5-oxo-thiazolo[3,2-a]pyrimidine-3-carboxamide], for which the EC50 turned out to be 5900 nM.

`CCNC(=O)c1c(OC)sc2nc(Cn3nc(Cl)cc3C(F)(F)F)cc(=O)n12` [compound 127, 7-[[3-chloro-5-(trifluoromethyl)pyrazol-1-yl]methyl]-N-ethyl-2-methoxy-5-oxo-thiazolo[3,2-a]pyrimidine-3-carboxamide]: the EC50 was found to be 4870 nM.

On to `CCNC(=O)c1c(OC)sc2nc(Cn3nc(C(F)(F)F)cc3Cl)cc(=O)n12` [compound 128, 7-[[5-chloro-3-(trifluoromethyl)pyrazol-1-yl]methyl]-N-ethyl-2-methoxy-5-oxo-thiazolo[3,2-a]pyrimidine-3-carboxamide], for which the EC50 turned out to be 682 nM.

`CCNC(=O)c1c(OC)sc2nc(Cn3nc(C(F)(F)F)cc3C3CC3)cc(=O)n12` [compound 129, 7-[[5-cyclopropyl-3-(trifluoromethyl)pyrazol-1-yl]methyl]-N-ethyl-2-methoxy-5-oxo-thiazolo[3,2-a]pyrimidine-3-carboxamide]: the EC50 came out at 774 nM.

With `CCNC(=O)c1c(OC)sc2nc(Cn3nc(C4CC4)cc3C(F)(F)F)cc(=O)n12` [compound 130, 7-[[3-cyclopropyl-5-(trifluoromethyl)pyrazol-1-yl]methyl]-N-ethyl-2-methoxy-5-oxo-thiazolo[3,2-a]pyrimidine-3-carboxamide], the EC50 worked out at 6860 nM.

As for `Cc1sc2nc(Cc3cccc(C(F)(F)F)c3F)cc(=O)n2c1C1CC1C#N` (centres unmarked) [compound 131, 2-[7-[[2-fluoro-3-(trifluoromethyl)phenyl]methyl]-2-methyl-5-oxo-thiazolo[3,2-a]pyrimidin-3-yl]cyclopropanecarbonitrile], the EC50 was found to be 681 nM.

Regarding `Cc1sc2nc(Cn3nc(C(F)(F)F)cc3Cl)cc(=O)n2c1-c1ccn[nH]1` [compound 132], the 50% effective concentration (EC50) turned out to be 2040 nM.

Take `Cc1sc2nc(Cn3nc(Cl)cc3C(F)(F)F)cc(=O)n2c1-c1ccn[nH]1` [compound 133, 7-[[3-chloro-5-(trifluoromethyl)pyrazol-1-yl]methyl]-2-methyl-3-(1H-pyrazol-5-yl)thiazolo[3,2-a]pyrimidin-5-one]: the EC50 stood at 10100 nM.

For the compound `Cc1sc2nc(Cn3nc(C(F)(F)F)cc3Cl)cc(=O)n2c1-c1cccnc1` [compound 134, 7-[[5-chloro-3-(trifluoromethyl)pyrazol-1-yl]methyl]-2-methyl-3-(3-pyridyl)thiazolo[3,2-a]pyrimidin-5-one], the EC50 stood at 501 nM.

Take `C=C(C)c1c(C)sc2nc(Cn3nc(C(F)(F)F)cc3Cl)cc(=O)n12` [compound 135, 7-[[5-chloro-3-(trifluoromethyl)pyrazol-1-yl]methyl]-3-isopropenyl-2-methyl-thiazolo[3,2-a]pyrimidin-5-one]: the EC50 turned out to be 397 nM.

For the compound `Cc1sc2nc(Cn3nc(C(F)(F)F)cc3Cl)cc(=O)n2c1-c1cncc(F)c1` [compound 138, 7-[[5-chloro-3-(trifluoromethyl)pyrazol-1-yl]methyl]-3-(5-fluoro-3-pyridyl)-2-methyl-thiazolo[3,2-a]pyrimidin-5-one], the EC50 came out at 775 nM.

For `Cc1sc2nc(Cn3nc(Cl)cc3C(F)(F)F)cc(=O)n2c1-c1cncc(F)c1` [compound 139, 7-[[3-chloro-5-(trifluoromethyl)pyrazol-1-yl]methyl]-3-(5-fluoro-3-pyridyl)-2-methyl-thiazolo[3,2-a]pyrimidin-5-one], the EC50 is 6360 nM.

In the case of `CCC(=O)c1c(C)sc2nc(Cn3nc(C(F)(F)F)cc3Cl)cc(=O)n12` [compound 140, 7-[[5-chloro-3-(trifluoromethyl)pyrazol-1-yl]methyl]-2-methyl-3-propanoyl-thiazolo[3,2-a]pyrimidin-5-one], the EC50 was determined as 147 nM.

In the case of `CCC(=O)c1c(C)sc2nc(Cn3nc(Cl)cc3C(F)(F)F)cc(=O)n12` [compound 141, 7-[[3-chloro-5-(trifluoromethyl)pyrazol-1-yl]methyl]-2-methyl-3-propanoyl-thiazolo[3,2-a]pyrimidin-5-one], the EC50 came out at 328 nM.

In the case of `Cc1sc2nc(Cn3nc(C(F)(F)F)cc3Cl)cc(=O)n2c1-c1nccs1` [compound 142, 7-[[5-chloro-3-(trifluoromethyl)pyrazol-1-yl]methyl]-2-methyl-3-thiazol-2-yl-thiazolo[3,2-a]pyrimidin-5-one], the EC50 was 2090 nM.

Take `CCNC(=O)c1c(C)sc2nc(CN(C)c3ccc(F)cn3)cc(=O)n12` [compound 143, N-ethyl-7-[[(5-fluoro-2-pyridyl)-methyl-amino]methyl]-2-methyl-5-oxo-thiazolo[3,2-a]pyrimidine-3-carboxamide]: the EC50 is 12000 nM.

With `N#CC1CC1c1c(C(F)(F)F)sc2nc(Cn3nc(C(F)(F)F)cc3Cl)cc(=O)n12` (centres unmarked) [compound 144, 2-[7-[[5-chloro-3-(trifluoromethyl)pyrazol-1-yl]methyl]-5-oxo-2-(trifluoromethyl)thiazolo[3,2-a]pyrimidin-3-yl]cyclopropanecarbonitrile], the EC50 stood at 41.1 nM.

As to `N#CC1CC1c1c(C(F)(F)F)sc2nc(Cn3nc(Cl)cc3C(F)(F)F)cc(=O)n12` (centres unmarked) [compound 145, 2-[7-[[3-chloro-5-(trifluoromethyl)pyrazol-1-yl]methyl]-5-oxo-2-(trifluoromethyl)thiazolo[3,2-a]pyrimidin-3-yl]cyclopropanecarbonitrile], the EC50 is 132 nM.

As for `N#Cc1cccc(Cc2cc(=O)n3c(C4CC4C(F)(F)F)c(C(F)(F)F)sc3n2)c1F` (centres unmarked) [compound 146, 2-fluoro-3-[[5-oxo-2-(trifluoromethyl)-3-[2-(trifluoromethyl)cyclopropyl]thiazolo[3,2-a]pyrimidin-7-yl]methyl]benzonitrile], the EC50 worked out at 156 nM.

Regarding `CCNC(=O)c1c(C)sc2nc(CN(CC)c3ccc(F)cn3)cc(=O)n12` [compound 147, N-ethyl-7-[[ethyl-(5-fluoro-2-pyridyl)amino]methyl]-2-methyl-5-oxo-thiazolo[3,2-a]pyrimidine-3-carboxamide], the EC50 was 1980 nM.

On to `CCNC(=O)c1c(C)sc2nc(CN(CC)c3ccccn3)cc(=O)n12` [compound 148, N-ethyl-7-[[ethyl(2-pyridyl)amino]methyl]-2-methyl-5-oxo-thiazolo[3,2-a]pyrimidine-3-carboxamide], for which the EC50 came out at 20800 nM.

For `Cc1sc2nc(Cn3nc(C(F)(F)F)cc3Cl)cc(=O)n2c1-c1cncc(Cl)c1` [compound 149, 3-(5-chloro-3-pyridyl)-7-[[5-chloro-3-(trifluoromethyl)pyrazol-1-yl]methyl]-2-methyl-thiazolo[3,2-a]pyrimidin-5-one], the EC50 was determined as 729 nM.

Turning to `Cc1sc2nc(Cn3nc(Cl)cc3C(F)(F)F)cc(=O)n2c1-c1cncc(Cl)c1` [compound 150, 3-(5-chloro-3-pyridyl)-7-[[3-chloro-5-(trifluoromethyl)pyrazol-1-yl]methyl]-2-methyl-thiazolo[3,2-a]pyrimidin-5-one], the EC50 amounted to 17300 nM.

`Cc1sc2nc(Cn3nc(C(F)(F)F)cc3Cl)cc(=O)n2c1-c1cscn1` [compound 151, 7-[[5-chloro-3-(trifluoromethyl)pyrazol-1-yl]methyl]-2-methyl-3-thiazol-4-yl-thiazolo[3,2-a]pyrimidin-5-one]: the EC50 stood at 538 nM.

As a reminder, the EC50 is the concentration giving half of the maximal effect.
